Marks after values point to notes of the source that are not given here.
Tests used:
[1] = system: crab-eating monkey cerebral infarction model; assay: Crab-eating monkey cerebral infarction model (thrombotic middle cerebral artery occlusion); type: in vivo; details: mean ± S.D.
Procedure: A reducing effect of a cerebral infarction size and an improving effect of a neurological symptom of SMTP-7 in a crab-eating monkey cerebral infarction model were studied according to the following testing method.
SMTP-7 administration group: 10 mg/kg, 2 to 3 year old male crab-eating monkeys, 6 monkeys
Administration method of test substance: The administration volume was set at 10 mL/kg. A Surflo indwelling needle was indwelled in the left saphenous vein, 1 mg/kg (1 mL/kg) was administered 1 hour after ischemia as a bolus over 5 sec, then 9 mg/kg (9 mL/kg) was administered continuously over 30 min using a syringe pump.
Preparation of administration liquid: SMTP-7 was dissolved in a physiological saline solution at 1 mg/mL. More particularly, to 70.0 mg of a SMTP-7 sodium salt (containing 63.1 mg of SMTP-7) was added 63.1 mL of a physiological saline solution, and the liquid was stirred by a magnetic stirrer under heating in a hot-water bath (37° C.) for dissolution. An ultrasonic treatment was conducted according to need. After dissolution the liquid was subjected to filter sterilization by a sterile filter (0.22 μm, made of cellulose acetate). The administration liquid was prepared before using. After the preparation it was kept in a 37° C. hot-water bath until immediately before the use, and the administration was finished within 4 hours after the preparation.
The treatment of cerebral infarction was conducted according to the standard experimental protocol (SPHPR710-15A). More particularly, after extirpating the right eyeball, the eyeground bone outside the optic nerve exit was removed by a dental drill to expose the dura mater. The dura mater was carefully detached to identify the middle cerebral artery. The origin part of the middle cerebral artery was separated from the arachnoid mater and a light irradiation probe for generating a thrombus was fixed on the middle cerebral artery. At the distal end of the probe a probe of a pulse Doppler blood flowmeter (Crystal Bio, PDV-20) was placed. An intravenous administration of rose bengal (Wako Pure Chemical Industries, Ltd.) (20 mg/kg) over 6 min was initiated and an irradiation with green light with the wavelength of 540 nm (1.40 million LUX) was conducted for 20 min to block the middle cerebral artery by a thrombus. The initiation time of the light irradiation and the administration of the rose Bengal was defined as the initiation time of ischemia. The middle cerebral artery blood flow was measured by the pulse Doppler blood flowmeter continuously for 2 hours from the initiation time of the light irradiation and then the incision was closed. A series of procedures were carried out completely under an operating microscope to minimize intraoperative hemorrhage to the utmost. Further, the rectal temperature of an animal under operation was monitored, and the animal was kept warmed by a heating pad, so as to maintain the body temperature of the animal in a physiological range (37.0 to 38.5° C.).
Neurological symptoms as described below were observed 24 hours after ischemia according to J. Neurosci. Meth., 2001; 105: 45-53.
After the neurological symptom observation 24 hours after the operation, a euthanasia treatment was conducted by means of a megadose of pentobarbital and the brain was extirpated. Six mm-thick coronal slices were prepared and photographed for quantitative determination of a hemorrhagic infarction. Thereafter, the infarction area was stained in a 2% TTC solution and photographs were taken for quantitative determination of an infarction size. For evaluations of the hemorrhagic infarction and the infarction area, the occipital lobe side of each slice was used.
Photographs of an individual were converted to TIF images and hemorrhagic infarction areas and the respective infarction areas were marked by Photoshop 7.0 (Adobe), which sizes were then measured by Scion Image 0.4.0.3 (Scion Corporation). […]

[2] = system: plasmin/α2-antiplasmin; assay: Plasmin activity by fibrinogen zymography of plasma, mouse cerebral infarction model; type: in vivo; details: 10 mg/kg 1 hour after ischemia, mean ± SE, n=6
Procedure: The quantity of plasmin/α2-antiplasmin in plasma was measured by a fibrinogen zymography method for evaluating the plasmin activity, when a triprenyl phenol compound was administered to a mouse cerebral infarction model. As triprenyl phenol compounds, SMTP-7, SMTP-6, SMTP-22, SMTP-25, SMTP-43, and SMTP-44D were used.
The triprenyl phenol compounds were prepared same as in Example 2 and Example 5. The administration of 10 mg/kg of a triprenyl phenol compound was initiated 1 hour after the initiation of ischemia. The administration method was same as Example 3. Six mice were used for each condition.
A blood sample was taken according to the following method at 3 time points, namely after the completion of the administration 0 hour (immediately after the completion), 1 hour, and 3 hours. Under anesthesia with 1 to 1.5% isoflurane, the […] and 90 μL of blood was withdrawn from the abdominal vena cava into a syringe containing 10 μL of sodium citrate (3.8%) (sodium citrate:blood=1:9, final concentration of sodium citrate 0.38%).
After collection the blood was centrifuged (5000 rpm, 15 min, 4° C.) to separate plasma. A part of the plasma was mixed with equal quantity of a sample buffer (125 mM Tris-HCl (pH 6.8), 4% (w/v) SDS, 0.04% (w/v) bromophenol blue, 20% (w/v) sucrose), which was then divided into small fractions, and cryopreserved.
A part of the plasma was reserved and diluted 300-fold with 0.1 N NaOH and the protein content was determined by the Bradford method in order to even out the protein mass to be applied to an electrophoresis gel.
As the standard sample, a sample was prepared by reacting 10 μL of 120 nM plasmin (by SIGMA) and 10 μL of 600 nM α2-antiplasmin (by Wako Pure Chemical Industries, Ltd.) at 37° C. for 30 min, and mixing the same with 20 μL of the sample buffer.
An electrophoresis gel was prepared by overlaying a stacking gel on a 7.5% running gel containing 2 mg/mL fibrinogen (by SIGMA). Based on the determined protein mass, 3 to 15 μL of the sample was applied, so that the equal amount of protein was applied.
After electrophoresis at 10 mA/sheet, for 3 hours the stacking gel was removed and rinsed for 30 min twice with about 100 mL/gel of a rinse liquid (2.5% Triton X-100). After rinsing, incubation was carried out at 37° C. for 24 to 60 hours under gentle shaking with about 100 mL/sheet of an incubation buffer (0.1 M glycine-50 mM Tris-HCl, pH 8.3 at 37° C.).
Thereafter the gel was stained by a stain solution (0.075% CBB 8250, 22.5% methanol, 2.25% sulfosalicylic acid dihydrate, 7.5% trichloroacetic acid) at room temperature for 15 to 30 min with gentle shaking. Removing the stain solution, the gel was decolored by a decoloring solution (methanol:acetic acid:water=1:1:6), which was replaced with water at an appropriate time point according to appearance of bands observed.
The image on the gel was read in by an imaging analyzer (Printgraph (AE-6933FXCF), by ATTO) and the band intensity was evaluated. The results are expressed as a ratio to the value of the control group at 0 hour after the completion of the administration (immediately after the completion).

[3] = 10 mg/kg i.v. 1 hour after ischemia, 24 hours after ischemia
[4] = plasma 0 hr after completion of administration
[5] = plasma 1 hr after completion of administration
[6] = plasma 3 hr after completion of administration

SMILES	Occlusion Time ([1]; 0~60 min after ischemia (before administration), 10 mg/kg i.v.) [min]	Hemorrhagic infarction area size [1, 3]	cerebral infarction size: Basal ganglion [1, 3]	cerebral infarction size: Cerebral cortex [1, 3] [mm^3]	cerebral infarction size: Total [1, 3]	cerebral infarction size: White matter [1, 3] [mm^3]	neurological symptom score: Consciousness [1, 3]	neurological symptom score: Motor system [1, 3]	neurological symptom score: Sensory system [1, 3]	neurological symptom score: Skeletal muscle coordination system [1, 3]	neurological symptom score: Total [1, 3]	Total Occlusion Time ([1]; 10 mg/kg i.v. 1 hour after ischemia, measured for 2 hours, 6 monkeys) [min]	Time to Occlusion ([1]; 10 mg/kg i.v. 1 hour after ischemia, middle cerebral artery blood flow, 6 monkeys) [min]	Occlusion Time ([1]; 60~120 min after ischemia, 10 mg/kg i.v. 1 hour after ischemia) [min]	plasmin activity (plasmin/α2-antiplasmin band intensity), ratio to control group at 0 hour [2, 4]	plasmin activity (plasmin/α2-antiplasmin band intensity), ratio to control group at 0 hour [2, 5]	plasmin activity (plasmin/α2-antiplasmin band intensity), ratio to control group at 0 hour [2, 6]
CC(C)=CCC/C(C)=C/CC[C@@]1(C)Oc2c(c(O)cc3c2CN(CCC[C@@H](C(=O)O)N2Cc4c(cc(O)c5c4O[C@](C)(CC/C=C(\C)CCC=C(C)C)[C@@H](O)C5)C2=O)C3=O)C[C@@H]1O [SMTP-7]	45.5 ± 3.8	14.1 ± 7.4 (P < 0.05) mm^2	1419.7 ± 633.8* mm^3	237.8 ± 198.8	1745.1 ± 749.5* mm^3	87.7 ± 71.8	7.7 ± 2.0	10.7 ± 2.7	7.5 ± 1.6	5.3 ± 2.4	31.2 ± 7.9	86.8 ± 18.8	6.9 ± 2.5	41.3 ± 18.9	1.49 ± 0.13	3.23 ± 0.47	3.27 ± 0.67
CC(C)=CCC/C(C)=C/CCC1(C)Oc2c(c(O)cc3c2CN(C(Cc2c[nH]c4ccccc24)C(=O)O)C3=O)CC1O (centres unmarked) [SMTP-6]	–	–	–	–	–	–	–	–	–	–	–	–	–	–	1.08 ± 0.12	1.17 ± 0.14	1.68 ± 0.10
